From US12006509B2, “Macrotumor engineering” (Purdue Research Foundation, priority 2019, dated 2024)
Entries after “also recorded” stand apart in the source; their conditions may differ.

Key:
[1] = tested on: macrotumors formed by T4-2 cells; assay: Doxorubicin treatment of macrotumors, tumor size (surface area); assay type: cell-based; conditions: 10 μM; 24 h, followed by six-day resting period
Method: (§1) FIG. 6. Effect of Doxorubicin treatment on macrotumors formed by T4-2 cells. a. Images of macrotumors treated (Dox) or untreated (Control) with 10 μM doxorubicin at day 0, for 24 hours and further cultured for six days. n=two replicates for this experiment (1, 2). b. Shown are the surface areas of macrotumors from A measured at days 0, 1, 2, 4, 5, and 7. c. Another experiment with 24 h Doxorubicin (Dox) treatment at day 0, 7 and 14 with images taken at day 0 and 21. Size bars, 5 mm
Images of whole tumors in culture and of paper scaffold were taken with a Plugable USB 2.0 Digital Microscope (Plugable Technologies, Redmond, WA). Tumor size (short and long axis) was measured with ImageJ. For pathological assessment slides were either directly visualized by microscopy or scanned (20× objective) with an Aperio/Pathology Slide Scanner (Leica Biosystems Inc., Buffalo Grove, IL).

[2] = tested on: macrotumors formed by T4-2 cells; assay: Weekly doxorubicin treatment of macrotumors, pathological assessment of nuclear morphology; assay type: cell-based; conditions: 10 μM; 24 h weekly for three weeks; assessed at days 7 and 21
Method: as §1
Macrotumors were fixed in 4% paraformaldehyde (Santa Cruz; Dallas, TX) prior to embedding in paraffin at the Histology Research Laboratory, Department of Comparative Pathobiology, Purdue University, according to standard protocols used for tumor sample embedding, sectioning, immunohistochemistry with polyclonal antibodies against caspase 3 (1/200; Cell Signaling Tech, Danvers, MA) and Ki67 (1/500; Millipore-Sigma, St Louis, MO) and hematoxylin & eosin (H&E) staining. Certain sections were stained with toluidine blue (SigmaAldrich, St. Louis, MO) before H&E staining.

[3] = tested on: macrotumors formed by T4-2 cells; assay: Doxorubicin uptake in macrotumors (autofluorescence, confocal Z-sections); assay type: cell-based; conditions: 4-h treatment, 10 μg/ml [17.25 μM], macrotumors cultured 24 h
Method: FIG. 1. Differential centrifugation of small tumor nodules leads to the formation of simple and mixed types of macrotumors with in vivo like pathological features. The formation of tumors of up to 600 μm in size was induced by culturing either IDC T4-2 cells or S2 DCIS cells in Matrigel™ drip culture for 10 days. Upon release from Matrigel™ with dispase treatment, tumor nodules were incubated with 100 μg/ml fibronectin solution, spun down either as a single type of nodules (9,000 nodules; a-e) or as mixed types of nodules (4,500 nodules of each tumor type; f-g) and embedded in collagen I (2,000 Pa) as detailed in the methods section. a. […] Macrotumors cultured for 24 h were incubated with 17.25 μM doxorubicin for four hours and imaged with bright field and fluorescence microscopy (doxorubicin autofluorescence in the red channel). […] Fluorescence images of macrotumors formed by DiI-stained T4-2 nodules, CellMask™ Green-stained S2 nodules and mixed types of macrotumors with T4-2 and S2 nodules (either mixed before centrifugation ‘T4-2/S2 by mixing’ or sequentially centrifuged ‘T4-2/S2 by stacking’) taken with a Nikon®ECLIPSE® Ts2 inverted microscope (Nikon, Melville, NY). g. […] In D, 50 nuclei analyzed in two biological replicates for macrotumors and 100 nuclei analyzed per section of three tissue samples; *P<0.05 **P<0.01; ANOVA with Tukey's posthoc test. […]

[4] = Stiffness measurement of collagen I with fibronectin (compression test); assay type: physicochemical; conditions: fibronectin with collagen I vs collagen I only
Method: FIG. 3. Impact of fibronectin on macrotumors. Small tumors (9000) preformed in Matrigel™ for 10 days were used to make macrotumors as described in the Methods section with or without incubation with 100 μg/ml fibronectin. a. Macrotumors prepared without fibronectin incubation and cultured for 24 hours (right images at 40× magnification). b. Comparison of volumes and areas of macrotumors with (+) or without (−) incubation with fibronectin after 30 minutes (0.5 h) and 24 h of culture; n=5, mean+/−SEM. c. Stiffness of collagen I (Young's modulus, Pa) prepared with Collagen I, and measured with customized eXpert 4000, ADMET by constant pressure on unconstrained sample (see reference 15 for details for this procedure). d. Staining with H&E of macrotumors prepared without incubation with fibronectin. e. representative images of macrotumors and nodules (mixed in collagen I for 10 minutes without prior centrifugation). Shown is the bar graph of the percentage of cells positive for proliferation marker Ki67 staining after 24 h of culture of macrotumors in collagen I or collagen I+fibronectin (F), or nodules (mixed in collagen I for 10 minutes without prior centrifugation); n=2; 150 nuclei analyzed per biological replicate. […]
The elastic modulus of cultured samples can be calculated from engineered stress-strains curve attained with compression tests. […]

Row | Compound | tumor size [1] | nuclear morphology (pathological assessment) [2] | drug uptake / penetration in the macrotumor [3] | ECM stiffness [4]
1 | COc1cccc2c1C(=O)c1c(O)c3c(c(O)c1C2=O)C[C@@](O)(C(=O)CO)C[C@@H]3O[C@H]1C[C@H](N)[C@H](O)[C@H](C)O1 [doxorubicin] | appeared to decrease tumor size after day 4 | increasingly affected | penetration of doxorubicin in all areas of the macrotumor; also recorded: drug uptake occurred throughout the macrotumors | 
2 | Fibronectin |  |  |  | slightly raised
